# Measured values taken from article PMC7529758, “Over-activation of a nonessential bacterial protease DegP as an antibiotic strategy” (Communications Biology, 2020).
# Changes are numbered by the printed parent chain. In names and notes the source's numbering stands. *1 amine or outer side, *2 acyl side, *3 side chain or, on linkers, in order; H or OH if unused. Where a SMILES comes first, the peptide text is derived from it. Bridges are numbered along the chain shown (N, C = ends). Roman numbers before positions name the chains, in order. Where no end group is shown, it is not given here. The star is where a group is joined. TBMB = c1c(C[*:1])cc(C[*:3])cc1C[*:2]; mXylylene = c1cc(C[*:1])cc(C[*:2])c1; Bn = c1ccc(C*)cc1
# T1: DegP^S210A (E. coli, UniProt P0C0V0 27-474, S210A)
# T1 sequence: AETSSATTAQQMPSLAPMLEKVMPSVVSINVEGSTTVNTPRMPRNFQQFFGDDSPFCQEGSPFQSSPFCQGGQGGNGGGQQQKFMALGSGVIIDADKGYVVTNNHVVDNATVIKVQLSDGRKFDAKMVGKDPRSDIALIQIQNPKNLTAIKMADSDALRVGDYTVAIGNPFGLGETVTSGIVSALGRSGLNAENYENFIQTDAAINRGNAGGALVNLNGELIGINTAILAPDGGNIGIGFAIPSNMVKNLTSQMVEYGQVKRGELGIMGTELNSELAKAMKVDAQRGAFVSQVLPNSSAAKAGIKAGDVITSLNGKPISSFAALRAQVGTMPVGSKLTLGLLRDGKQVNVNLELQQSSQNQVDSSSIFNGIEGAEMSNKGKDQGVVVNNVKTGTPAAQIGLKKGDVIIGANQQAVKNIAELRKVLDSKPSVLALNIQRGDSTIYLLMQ
# T2: DegP^WT (E. coli) (UniProt P0C0V0)
# T2 sequence: T1 sequence with A210S
# B1: MMB_CYYKI (peptide)
# peptide: CYYKI
# modifications: not fully specified (residue 1); printed as MMB_CYYKI
# notes: also called compound with one CYYKI arm; one-arm compound; source: synthetic peptide (SPPS), reacted with benzyl bromide
# B2: DegP^S210A (enzyme, E. coli, UniProt P0C0V0 27-474, looked up)
# chain: T1 sequence
# notes: periplasmic protease DegP (HtrA family) of E. coli, active-site mutant S210A; In the crystals it resembles the dodecameric cage of 3OTP (two trimers in the asymmetric unit); also called DegP active-site mutant
# B3: TMB_CKYRKL (peptide)
# peptide: CKYRKL
# modifications: also: three arms joined via TMB (trimer), linker at 1 via TMB, other end not in the chain
# How the values were obtained:
# DegP^S210A [1] = target: T3, DegP^S210A (Escherichia coli, UniProt P0C0V0, C83S/C95S/N322C/S236A); assay: FRET assay of DegP cage assembly; assay type: biochemical
# T3 construct: pET22b-degP(full length; C57S/C69S/N296C/S210A)_6His; 6His (C); made in house; host or cells: E. coli (inferred from the pET plasmid)
# T3 sequence (P0C0V0 27-474 C83S/C95S/S236A/N322C): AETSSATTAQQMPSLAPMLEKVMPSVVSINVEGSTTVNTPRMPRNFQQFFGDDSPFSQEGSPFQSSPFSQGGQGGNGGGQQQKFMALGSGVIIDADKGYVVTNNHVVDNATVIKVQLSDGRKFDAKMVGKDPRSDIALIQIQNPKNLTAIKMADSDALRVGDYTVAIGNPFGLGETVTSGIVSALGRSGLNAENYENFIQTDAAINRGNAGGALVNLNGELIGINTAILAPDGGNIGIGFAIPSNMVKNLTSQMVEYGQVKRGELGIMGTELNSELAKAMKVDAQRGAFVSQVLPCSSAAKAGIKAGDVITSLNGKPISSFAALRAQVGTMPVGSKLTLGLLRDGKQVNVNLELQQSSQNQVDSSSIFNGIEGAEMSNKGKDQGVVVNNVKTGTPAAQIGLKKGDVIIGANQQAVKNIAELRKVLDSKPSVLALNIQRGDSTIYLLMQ
# Method: Fluorescence resonance energy transfer (FRET) assay was performed as previously described[14],[22]. Equimolar amounts of fluorescence donor- and acceptor-labeled DegP^S210A (total 0.1, 1 or 3 μM) was mixed in a buffer containing 50 mM sodium phosphate (pH 8) and 100 mM NaCl. Two-fold serial dilutions of activators were added to the DegP mixtures. Alexa Fluor 555 C2-maleinide and 647 C2-maleinide (life technologies) were used as fluorescence dyes. Cage assembly of DegP was monitored by increased FRET ratio using the micro-plate reader (excitation 520 nm, emission 570 or 670 nm, Infinite M200pro, Tecan). Assays were performed in triplicates.
# DegP^S210A [2] = target: T4, DegP^S210A (Escherichia coli, UniProt P0C0V0, S236A); assay: Isothermal titration calorimetry; assay type: binding; settings: ITC; for Kd: Kd (M); for binding stoichiometry N: 298 K, single binding site model, DMB_CYYKI 0–2 molar ratio
# T4 construct: pET22b-degP(full length; S210A)_6His; 6His (C); made in house
# Method: ITC experiments were performed using Affinity ITC instruments (TA Instruments, New Castle, DE, USA) at 298 K. DegP^S210A mutant (18.10 μM for 0–2 molar ratio and 109.33 μM for 0–0.4 molar ratio), which were prepared in a buffer containing 5 mM phosphate (pH 8.0) were degassed at 295 K prior to measurements. Using a micro-syringe, 2.5 μL of DMB_CYYKI (300 μM) was added at intervals of 200 s to the DegP solution in the cell with gentle stirring. As for other ligands, 2.5 μL of MMB_CYYKI (453 μM), TMB_CYYKI (218.46 μM) or 18–58 substrate peptide (80 μM) was added at intervals of 200 s to the DegP solution (27.33 μM, 37.45 μM, and 20 μM, respectively). Data were fitted to the single binding site model. In experiments with 0–2 and 0–2.6 molar ratio of DMB_CYYKI and MMB_CYYKI, respectively, the data with 0–0.3 molar ratio were excluded for the fitting.
# E. coli imp4213 = assay: microbe, parasite or virus in culture; assay type: cell-based, Escherichia coli
# Method: The susceptibility of E. coli to activators was analyzed by determining the MICs. Two-fold serial dilutions of activators in LB broth were added to bacteria (OD600 = 0.1) in 96-well plates. Plates were incubated with shaking at 30 or 42 °C. After 12 h of incubation, the MIC was defined as the lowest concentration of the activator to inhibit the growth of bacteria by using a micro-plate reader (Absorbance 600 nm, Infinite M200pro, Tecan). The assay was performed in triplicates.
# E.coli imp4213 strain = assay type: cell-based, Escherichia coli; settings: 20 µg/ml alone; 12 h
# Method: Time-kill experiment was performed by counting the viable bacteria at each time point. The E.coli imp4213 strain was cultured with streptomycin overnight and diluted 1:100 in fresh LB broth. When the OD600 value became 0.01, the activator was added at 2x MIC. The sample was incubated with shaking (180 rpm) at 30 °C or 42 °C, and aliquots were taken after 0, 1, 2, 4, 6, 8, 10, or 12 h. These aliquots were serially diluted (ten-fold) and plated on LB agar plates for colony counts. Experiments were performed in triplicates. The kill curves were plotted with the CFU/mL against time.
# Experiments with cells in the stationary phase, however, were performed without dilution of the overnight culture.
# DegP^S210A [3] = target: T1, DegP^S210A; assay: ITC
# DegP^S210A [4] = target: B2; assay: ITC; 298 K, 5 mM phosphate pH 8.0; compound or peptide injected into DegP^S210A in the cell; single binding site model; for DMB_CYYKI (0–2 molar ratio) and MMB_CYYKI (0–2.6) the data at 0–0.3 molar ratio were excluded from the fit; settings: both partners purified
# [5] = target: the molecule itself; assay: crystal structure; DegP^S210A (198 µM) incubated with TMB_CYYKI (297 µM) in 5 mM phosphate pH 8.0 for 1 h at 295 K; hanging drop, PEG3350 10%, tacsimate 0.1 M pH 3.4; molecular replacement with 3OTP
# DegP^WT (E. coli) = target: T2, DegP^WT (E. coli)
# DegP^S210A (E. coli) = DegP^S210A (E. coli) (UniProt P0C0V0); assay: ITC; 298 K, 5 mM phosphate pH 8.0; compound or peptide injected into DegP^S210A in the cell; single binding site model; for DMB_CYYKI (0–2 molar ratio) and MMB_CYYKI (0–2.6) the data at 0–0.3 molar ratio were excluded from the fit
# [6] = model Independent, DMB_CYYKI 0-2 molar ratio
molecule,measurement,setting,value
CC[C@H](C)[C@H](NC(=O)[C@H](CCCCN)NC(=O)[C@H](Cc1ccc(O)cc1)NC(=O)[C@H](Cc1ccc(O)cc1)NC(=O)[C@@H](N)CSCc1cccc(CSC[C@H](N)C(=O)N[C@@H](Cc2ccc(O)cc2)C(=O)N[C@@H](Cc2ccc(O)cc2)C(=O)N[C@@H](CCCCN)C(=O)N[C@H](C(=O)O)[C@@H](C)CC)c1)C(=O)O [DMB_CYYKI] (I: H-CYYKI-OH / II: H-CYYKI-OH; linker I:1-II:1 via mXylylene),EC50,DegP^S210A [1],1100 nM
same,Kd,"DegP^S210A [2]; model Independent, 0-0.4 molar ratio",4.62e-07 M
same,Kd,DegP^S210A [2]; [6],2.39e-07 M
CC[C@H](C)[C@H](NC(=O)[C@H](CCCCN)NC(=O)[C@H](Cc1ccc(O)cc1)NC(=O)[C@H](Cc1ccc(O)cc1)NC(=O)[C@@H](N)CSCc1ccccc1)C(=O)O [MMB_CYYKI] (H-C(Bn)YYKI-OH),EC50,DegP^S210A [1],6800 nM
same,Kd,DegP^S210A [2]; [6],6.32e-07 M
CC[C@H](C)[C@H](NC(=O)[C@H](CCCCN)NC(=O)[C@H](Cc1ccc(O)cc1)NC(=O)[C@H](Cc1ccc(O)cc1)NC(=O)[C@@H](N)CSCc1cc(CSC[C@H](N)C(=O)N[C@@H](Cc2ccc(O)cc2)C(=O)N[C@@H](Cc2ccc(O)cc2)C(=O)N[C@@H](CCCCN)C(=O)N[C@H](C(=O)O)[C@@H](C)CC)cc(CSC[C@H](N)C(=O)N[C@@H](Cc2ccc(O)cc2)C(=O)N[C@@H](Cc2ccc(O)cc2)C(=O)N[C@@H](CCCCN)C(=O)N[C@H](C(=O)O)[C@@H](C)CC)c1)C(=O)O [TMB_CYYKI] (I: H-CYYKI-OH / II: H-CYYKI-OH / III: H-CYYKI-OH; linker I:1-II:1-III:1 via TBMB),EC50,DegP^S210A [1],1700 nM
same,MIC,"E. coli imp4213; imp4213, Fig. 3a and Supplementary Fig. 6b (30 °C and 42 °C), 12 h, LB",80 µM
same,Kd,DegP^S210A [2]; [6],2.35e-07 M
"O=C(N[C@H](CO)[C@H](O)c1ccc([N+](=O)[O-])cc1)C(Cl)Cl [chloramphenicol, reference compound]",MIC,"E. coli imp4213; Escherichia coli, IMP4213",2 µg/mL
same,number of viable cells,E.coli imp4213 strain,roughly at the same level
"CO[C@H]1/C=C/O[C@@]2(C)Oc3c(C)c(O)c4c(O)c(c(/C=N/N5CCN(C)CC5)c(O)c4c3C2=O)NC(=O)/C(C)=C\C=C\[C@H](C)[C@H](O)[C@@H](C)[C@@H](O)[C@@H](C)[C@H](OC(C)=O)[C@@H]1C [rifampicin, reference compound]",MIC,"E. coli imp4213; Escherichia coli, IMP4213",0.008 µg/mL
"CN(C)[C@@H]1C(O)=C(C(N)=O)C(=O)[C@@]2(O)C(O)=C3C(=O)c4c(O)cccc4[C@@](C)(O)[C@H]3C[C@@H]12 [tetracycline, reference compound]",MIC,"E. coli imp4213; Escherichia coli, IMP4213",1 µg/mL
"DNYRGYSLGNWVSAAKFESNFNTQATNRNTDGSTDYGILQI [18–58, reference compound]",binding stoichiometry N,DegP^S210A [2],0.47
same,binding stoichiometry N,DegP^S210A [2]; listed as 18-58,0.473
same,ΔH,DegP^S210A [2]; [6],-4.4 kcal/mol
B1,Kd,DegP^S210A [3],630 nM
same,stoichiometry N,DegP^S210A [4],1.11
B2,binding result,[5],binds
B3,concentration of compound at maximal activation of reporter peptide (100 µM) cleavage by DegP; activation followed by inhibition at higher concentrations,DegP^WT (E. coli),100 µM
GTGDNYRGYSLGNWVSAAKFESNFNTQATNRNTDGSTDYGILQI [18–58 substrate peptide],Kd,DegP^S210A [3],100 nM
same,stoichiometry N,DegP^S210A (E. coli),0.47
